Four compounds from patent US20230085307A1, “PYRIDAZINONE COMPOUND AND HERBICIDE” (NISSAN CHEMICAL CORPORATION, priority 2019, published 2023) can be followed below.

For one test, the system named is redroot pigweed. Description: Test Example 4: herbicidal effect by soil treatment (Table 19, symbol N). It is filed as in vivo, redroot pigweed (Amaranthus retroflexus). In outline: (§1)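 Pre-emergence style soil spray: seeds under ~1.5 cm sterilized diluvial soil received a uniform coat of emulsion diluted to the predetermined herbicide amount. Greenhouse 25–30° C; readout at week three on previously defined criteria.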

The next test deals with blackgrass. Briefly: Test Example 4: herbicidal effect by soil treatment (Table 19, symbol J). It is filed as in vivo, blackgrass (Alopecurus myosuroides). The gist of the method:
as §1

The subject of a further test is Italian ryegrass. Description: Test Example 5: herbicidal effect by foliage application, plastic box (Table 20, symbol K). It is filed as in vivo, Italian ryegrass (Lolium multiflorum). The conditions noted are these: foliage application, three weeks after application. In outline: (§2)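 Plants were sown into sterilized diluvial soil under about 1.5 cm cover and kept in a greenhouse at 25° C. to 30° C. Fourteen days on, foliage received an even spray of the diluted emulsion. Herbicidal or crop effect was judged three weeks afterwards.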

A further test has as its system barnyard grass. Description: Test Example 4: herbicidal effect by soil treatment (Table 19, symbol H). The class given is in vivo, barnyard grass (Echinochloa crus-galli). In outline: as §1
In a further test the test system is persian speedwell. Description: Test Example 5: herbicidal effect by foliage application, plastic box (Table 20, symbol R). The class given is in vivo, Persian speedwell (Veronica persica). Conditions: foliage application, three weeks after application. The gist of the method:
as §2

The subject of test [1] is green foxtail. Description: Test Example 5: herbicidal effect by foliage application, plastic box (Table 20, symbol G). It is filed as in vivo, green foxtail (Setaria viridis). Conditions: foliage application, three weeks after application. The gist of the method:
as §2

Another test relates to velvetleaf. Description: Test Example 4: herbicidal effect by soil treatment (Table 19, symbol M). It is filed as in vivo, velvetleaf (Abutilon theophrasti). The gist of the method: as §1
The subject of a further test is Japanese bulrush. Briefly: Test Example 2: herbicidal activity, application during weed generation under submerged conditions (Table 17, symbol B). The class given is in vivo, Japanese bulrush (Schoenoplectus juncoides). Conditions: application during weed generation, submerged conditions. In outline: (§3)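 Wagner pot, alluvial soil, 4 cm flood; mixed sowing of all species; greenhouse 25° C.–30° C. Emulsifiable formulation, water-diluted to predetermined dose, applied to paddy water at 1–2 leaf stage. Effect rated at 3 wk using the earlier test's scoring criteria.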

In a further test the test system is late watergrass. Description: Test Example 2: herbicidal activity, application during weed generation under submerged conditions (Table 17, symbol A). The class given is in vivo, late watergrass (Echinochloa oryzicola). Conditions: application during weed generation, submerged conditions. In outline: as §3
The subject of a further test is southern crabgrass. Briefly: Test Example 4: herbicidal effect by soil treatment (Table 19, symbol F). The class given is in vivo, southern crabgrass (Digitaria ciliaris). In outline: as §1
The test system of test [2] is green foxtail. Description: Test Example 4: herbicidal effect by soil treatment (Table 19, symbol G). It is filed as in vivo, green foxtail (Setaria viridis). The gist of the method: as §1
Another test deals with wild oat. Description: Test Example 4: herbicidal effect by soil treatment (Table 19, symbol I). The class given is in vivo, wild oat (Avena fatua). The gist of the method: as §1
The subject of a further test is lambsquarters. Description: Test Example 5: herbicidal effect by foliage application, plastic box (Table 20, symbol O). It is filed as in vivo, lambsquarters (Chenopodium album). Conditions: foliage application, three weeks after application. The gist of the method:
as §2

The subject of a further test is oval-leafed pondweed. Description: Test Example 2: herbicidal activity, application during weed generation under submerged conditions (Table 17, symbol C). The class given is in vivo, oval-leafed pondweed (Monochoria vaginalis). The conditions noted are these: application during weed generation, submerged conditions. In outline:
as §3

For `Cc1nn(C)c(=O)c(-c2c(-c3ccc(OCC4CC4(F)F)cc3)sc3ccccc23)c1O` (centres unmarked) [1-138], the “N: redroot pigweed, herbicidal effect rating” value (from here on “N: redroot pigweed”) with redroot pigweed (AAH 320 g/ha) was 5 (Herbicidal rate of 90% or more (almost completely withered)). Further, the “J: blackgrass, herbicidal effect rating” value with blackgrass (AAH 320 g/ha) was 3 (Herbicidal rate of 40% or more and less than 70%). For the same compound, in the test with Italian ryegrass (AAH 320 g/ha), the “K: Italian ryegrass, herbicidal effect” value is 5 (Herbicidal rate of 90% or more (almost completely withered)). In the test with barnyard grass (AAH 320 g/ha), the “H: barnyard grass, herbicidal effect rating” value (“H: barnyard grass” below) is 5 (Herbicidal rate of 90% or more (almost completely withered)). Moreover, the “R: persian speedwell, herbicidal effect” value with persian speedwell (AAH 320 g/ha) is reported as 5 (Herbicidal rate of 90% or more (almost completely withered)). For the same compound, the “G: green foxtail, herbicidal effect” value in the test on green foxtail [1] (AAH 320 g/ha) is 3 (Herbicidal rate of 40% or more and less than 70%). Besides, the “M: velvetleaf, herbicidal effect rating” value in the test with velvetleaf (AAH 320 g/ha) is 3 (Herbicidal rate of 40% or more and less than 70%). Also, the “herbicidal effect rating, B: Japanese bulrush” value (from here on “herbicidal effect rating, B”) with Japanese bulrush (AAH 320 g/ha) was 3 (Herbicidal rate of 40% or more and less than 70%). For the same compound, the “herbicidal effect rating, A: late watergrass” value in the test with late watergrass (AAH 320 g/ha) was 0 (Herbicidal rate of 5% or less (almost no effect)). Besides, the “F: southern crabgrass, herbicidal effect rating” value (“F: southern crabgrass” for short) in the test on southern crabgrass (AAH 320 g/ha) is 0 (Herbicidal rate of 5% or less (almost no effect)). In addition, the “G: green foxtail, herbicidal effect rating” value with green foxtail [2] (AAH 320 g/ha) is 4 (Herbicidal rate of 70% or more and less than 90%). Moreover, the “I: wild oat, herbicidal effect rating” value with wild oat (AAH 320 g/ha) is 0 (Herbicidal rate of 5% or less (almost no effect)). Further, the “O: lambsquarters, herbicidal effect” value with lambsquarters (AAH 320 g/ha) is 4 (Herbicidal rate of 70% or more and less than 90%). Moreover, the “herbicidal effect rating, C: oval-leafed pondweed” value (shortened to “herbicidal effect rating, C”) in the test on oval-leafed pondweed (AAH 320 g/ha) is 0 (Herbicidal rate of 5% or less (almost no effect)).
Turning to `CSCCOc1ccc(-c2sc3ccccc3c2-c2c(O)c(C)nn(C)c2=O)cc1` [1-141], the “N: redroot pigweed” value with redroot pigweed (AAH 320 g/ha) was 5 (Herbicidal rate of 90% or more (almost completely withered)). Also, the “J: blackgrass, herbicidal effect rating” value with blackgrass (AAH 320 g/ha) is reported as 0 (Herbicidal rate of 5% or less (almost no effect)). The “K: Italian ryegrass, herbicidal effect” value in the test with Italian ryegrass (AAH 320 g/ha) is given as 5 (Herbicidal rate of 90% or more (almost completely withered)). In the test on barnyard grass (AAH 320 g/ha), the “H: barnyard grass” value is 4 (Herbicidal rate of 70% or more and less than 90%). In addition, the “R: persian speedwell, herbicidal effect” value in the test with persian speedwell (AAH 320 g/ha) was 5 (Herbicidal rate of 90% or more (almost completely withered)). Also, the “G: green foxtail, herbicidal effect” value in the test with green foxtail [1] (AAH 320 g/ha) is 5 (Herbicidal rate of 90% or more (almost completely withered)). The “M: velvetleaf, herbicidal effect rating” value in the test with velvetleaf (AAH 320 g/ha) is 4 (Herbicidal rate of 70% or more and less than 90%). The “herbicidal effect rating, B” value with Japanese bulrush (AAH 320 g/ha) was 3 (Herbicidal rate of 40% or more and less than 70%). Besides, in the test with late watergrass (AAH 320 g/ha), the “herbicidal effect rating, A: late watergrass” value is 0 (Herbicidal rate of 5% or less (almost no effect)). Further, in the test on southern crabgrass (AAH 320 g/ha), the “F: southern crabgrass” value is 4 (Herbicidal rate of 70% or more and less than 90%). The “G: green foxtail, herbicidal effect rating” value in the test with green foxtail [2] (AAH 320 g/ha) is on record as 5 (Herbicidal rate of 90% or more (almost completely withered)). Moreover, the “I: wild oat, herbicidal effect rating” value in the test with wild oat (AAH 320 g/ha) is recorded as 0 (Herbicidal rate of 5% or less (almost no effect)). Besides, the “O: lambsquarters, herbicidal effect” value in the test on lambsquarters (AAH 320 g/ha) is 5 (Herbicidal rate of 90% or more (almost completely withered)). Moreover, the “herbicidal effect rating, C” value in the test on oval-leafed pondweed (AAH 320 g/ha) is on record as 0 (Herbicidal rate of 5% or less (almost no effect)).
On to `Cc1nn(C)c(=O)c(-c2c(-c3ccc(OCC4CC4)cc3)sc3ccccc23)c1O` [1-142], for which the “N: redroot pigweed” value in the test on redroot pigweed (AAH 320 g/ha) was 4 (Herbicidal rate of 70% or more and less than 90%). In addition, the “J: blackgrass, herbicidal effect rating” value in the test with blackgrass (AAH 320 g/ha) was 0 (Herbicidal rate of 5% or less (almost no effect)). In the test with Italian ryegrass (AAH 320 g/ha), the “K: Italian ryegrass, herbicidal effect” value is reported as 0 (Herbicidal rate of 5% or less (almost no effect)). Further, the “H: barnyard grass” value with barnyard grass (AAH 320 g/ha) is 3 (Herbicidal rate of 40% or more and less than 70%). Further, the “R: persian speedwell, herbicidal effect” value with persian speedwell (AAH 320 g/ha) is listed as 5 (Herbicidal rate of 90% or more (almost completely withered)). In the test with green foxtail [1] (AAH 320 g/ha), the “G: green foxtail, herbicidal effect” value is 2 (Herbicidal rate of 20% or more and less than 40%). The “M: velvetleaf, herbicidal effect rating” value with velvetleaf (AAH 320 g/ha) was 3 (Herbicidal rate of 40% or more and less than 70%). Moreover, the “herbicidal effect rating, B” value in the test on Japanese bulrush (AAH 320 g/ha) is 2 (Herbicidal rate of 20% or more and less than 40%). For the same compound, the “herbicidal effect rating, A: late watergrass” value in the test on late watergrass (AAH 320 g/ha) was 0 (Herbicidal rate of 5% or less (almost no effect)). Besides, the “F: southern crabgrass” value in the test with southern crabgrass (AAH 320 g/ha) is 0 (Herbicidal rate of 5% or less (almost no effect)). The “G: green foxtail, herbicidal effect rating” value with green foxtail [2] (AAH 320 g/ha) is reported as 0 (Herbicidal rate of 5% or less (almost no effect)). Further, in the test with wild oat (AAH 320 g/ha), the “I: wild oat, herbicidal effect rating” value is 0 (Herbicidal rate of 5% or less (almost no effect)). The “O: lambsquarters, herbicidal effect” value in the test on lambsquarters (AAH 320 g/ha) was 3 (Herbicidal rate of 40% or more and less than 70%). Besides, in the test with oval-leafed pondweed (AAH 320 g/ha), the “herbicidal effect rating, C” value was 0 (Herbicidal rate of 5% or less (almost no effect)).
Consider `COCCOc1ccc(-c2sc3ccccc3c2-c2c(O)c(C)nn(C)c2=O)cc1` [1-148], for which, in the test with redroot pigweed (AAH 368 g/ha), the “N: redroot pigweed” value is given as 5 (Herbicidal rate of 90% or more (almost completely withered)). For the same compound, the “J: blackgrass, herbicidal effect rating” value in the test on blackgrass (AAH 368 g/ha) is 1 (Herbicidal rate of 5% or more and less than 20%). Further, in the test with Italian ryegrass (AAH 368 g/ha), the “K: Italian ryegrass, herbicidal effect” value is 5 (Herbicidal rate of 90% or more (almost completely withered)). Moreover, the “H: barnyard grass” value in the test on barnyard grass (AAH 368 g/ha) was 5 (Herbicidal rate of 90% or more (almost completely withered)). Also, the “R: persian speedwell, herbicidal effect” value in the test with persian speedwell (AAH 368 g/ha) is listed as 5 (Herbicidal rate of 90% or more (almost completely withered)). Also, in the test with green foxtail [1] (AAH 368 g/ha), the “G: green foxtail, herbicidal effect” value is 5 (Herbicidal rate of 90% or more (almost completely withered)). Also, the “M: velvetleaf, herbicidal effect rating” value in the test on velvetleaf (AAH 368 g/ha) was 4 (Herbicidal rate of 70% or more and less than 90%). Also, the “herbicidal effect rating, B” value with Japanese bulrush (AAH 368 g/ha) is 3 (Herbicidal rate of 40% or more and less than 70%). In addition, the “herbicidal effect rating, A: late watergrass” value in the test with late watergrass (AAH 368 g/ha) was 3 (Herbicidal rate of 40% or more and less than 70%). In addition, the “F: southern crabgrass” value in the test with southern crabgrass (AAH 368 g/ha) was 4 (Herbicidal rate of 70% or more and less than 90%). For the same compound, in the test on green foxtail [2] (AAH 368 g/ha), the “G: green foxtail, herbicidal effect rating” value is 5 (Herbicidal rate of 90% or more (almost completely withered)). Also, the “I: wild oat, herbicidal effect rating” value with wild oat (AAH 368 g/ha) was 2 (Herbicidal rate of 20% or more and less than 40%). The “O: lambsquarters, herbicidal effect” value in the test on lambsquarters (AAH 368 g/ha) is 5 (Herbicidal rate of 90% or more (almost completely withered)). Moreover, in the test with oval-leafed pondweed (AAH 368 g/ha), the “herbicidal effect rating, C” value was 1 (Herbicidal rate of 5% or more and less than 20%).
